Laboratory results reported in patent publication US20230129036A1, “AVENANTHRAMIDE COMPOSITIONS WITH IMPROVED SOLUBILITY COMPRISING 4-HYDROXYPHENONE” (priority 2020, published 2023).

Key:
[1] = Solubility / appearance of avenanthramide solutions with and without 4-hydroxyacetophenone, evaluated at 22° C.; assay type: physicochemical
Method: The solubility of avenanthramides A, B, C, D or L and Dihydroavenanthramide D in solution in combination with 4-hydroxyacetophenone in different concentrations was evaluated against a solution of avenanthram ides A, B, C, D and L without 4-hydroxyacetophenone.
The corresponding avenanthramides were presolved in ethanol or glycol. Water and 4-hydroxyacetophenone were added under stirring and heating up the solution to 60° C. The appearance of the solutions was evaluated at 22° C. according to the following Table 1: […]

[2] = Avn C, followed by Avn B and Avn A; cited from earlier work
[3] = addition of 4-hydroxyacetophenone in concentration of 0.1 or 0.5 wt % (Table 3, Table 4 b)

O=C(/C=C/C=C/c1ccc(O)cc1)Nc1ccc(O)cc1C(=O)O [Avenanthramide L]
Appearance of solution ([1]; 4-hydroxyacetophenone concentration increased to 0.5% as in Table 4 b): clear solution
Appearance of solution [1, 3]: clear solutions without turbidity or precipitation
Effect of addition of 4-hydroxyacetophenone on solubility / appearance ([1]; versus solution without 4-hydroxyacetophenone, increasing concentration): improved

O=C(C=Cc1ccc(O)cc1)Nc1ccc(O)cc1C(=O)O [Avenanthramide A, N-(4′-hydroxycinnamoyl)-5-hydroxyanthranilic acid]
Effect of 4-hydroxyacetophenone on solubility ([1]; 4-hydroxyacetophenone 0.01 wt %): improves the solubility
Appearance of solution [1, 3]: clear solutions without turbidity or precipitation

O=C(C=Cc1ccc(O)c(O)c1)Nc1ccc(O)cc1C(=O)O [Avenanthramide C, N-(3′-4′-dihydroxycinnamoyl)-5-hydroxyanthranilic acid]
Antioxidant activity, ranking among Avns [2]: highest activity

O=C(CCc1ccc(O)cc1)Nc1ccccc1C(=O)O [Dihydroavenanthramide D, 2-[(3-(4-hydroxyphenyl)propanoyl]amido)benzoic acid]
Appearance of solution ([1]; addition of 4-hydroxyacetophenone in concentrations of 0.5 to 1.0% (Tables 7 a and 7 b)): clear solutions withouts turbidity or precipitation
